We go through four molecules from publication PMC9343874, “Comparative Pharmacokinetics of Cinobufacini Capsule and Injection by UPLC-MS/MS” (Frontiers in Pharmacology, 2022).

The structures appear in SMILES notation. Read-outs that look alike come from different tables or passages of the source.

Data set [1] can be described thus: Stability of analytes in rat plasma QC samples under storage conditions. The format is physicochemical. To be noted: n = 6; for Stability during 24 h at 4°C, RE: post-treatment storage in autosampler; for −80°C for 30 days, RE / Three freeze–thaw cycles, RE: rat plasma; for −80°C for 30 days, RE: long-term; for Three freeze–thaw cycles, RE: −80°C to room temperature. The procedure: The stability of QC samples in six replicates at three concentrations (low, medium, and high levels) was analyzed under different storage conditions: the post-treatment stability was analyzed after storage in an autosampler (4°C) for 24 h. Freeze–thaw stability was investigated after three freeze–thaw cycles (−80°C to room temperature as one cycle). Long-term stability was assessed by analyzing QC samples kept at −80°C for 30 days. The concentrations of the analytes in the plasma samples and the QC samples were calculated by the calibration standard curve prepared each day. The stabilities of analytes were acceptable when the accuracy (RE, %) and precision (RSD, %) of all QC samples in all storage conditions were within ±15% compared to nominal concentrations.

Data set [2] can be described thus: Pharmacokinetic study in rats after intravenous administration of cinobufacini injection (UPLC-MS/MS of plasma). Type of data set: in vivo, rat. To be noted: cinobufacini injection group, intravenous. Here is the method: (§1) Male Sprague–Dawley rats (weighing 200–220 g) of SPF grade were offered by Sippr/BK laboratory Animal, Corp., Ltd. (Shanghai, China) and fed in the Laboratory Animal Center of the Shanghai University of Traditional Chinese Medicine. All the rats were kept under environmentally controlled conditions with constant temperature (22–24°C) and humidity (60–65%). The animal experiment program in the present research was approved by the Animal Committee of the Shanghai University of Traditional Chinese Medicine (PZSHUTCM210618012).
(§2) An Agilent 1290 liquid chromatographic system includes a G4220A quaternary pump, a G1326C column incubator, a G4226A automatic sampler, and a G1330B degasser. The column temperature was set to 35°C. A measure of 5 µL of samples were separated in an Agilent SB-C18 column (2.1 mm ×50 mm, 1.8 μm) and eluted at 0.3 ml/min, followed by gradient elution with water (0.1% V/V formic acid) (A) and acetonitrile (B) (0–1 min, 20%–20% B; 1–3.5 min, 20%–80% B; 4–4.1 min, 80%-20% B; 4.1–6 min, 20% B). The total run time was 6 minutes.
(§3) An Agilent 1290 Infinity series UPLC system was combined with an Agilent 6460 series triple quadrupole mass spectrometer (Agilent Technologies, Santa Clara, CA, United States) to quantify all 13 analytes in an ESI-positive ionization mode. Quantitative analysis was performed in an MRM mode. The mass spectrum conditions were as follows: capillary voltage, 4000V; drying gas (N2), gas flow rate: 10 L/min; sprayer, 30 psi; gas temperature 350°C; The delta EMV (+) 200 V; collision gas (N2); dwell time, 25 ms. Agilent’s MassHunter Workstation software was used for data collection, peak area calculation, and quantitative analysis.
(§4) A measure of 50 µL of the plasma sample was mixed with 10 µL of the internal standard solution (345 ng/ml) in a 1.5-ml centrifuge tube and vortexed for 5 min. The samples were extracted by 500 µL of ethyl acetate for 5 min and centrifuged at 4°C for 10 min (18000 rpm). All the supernatants were collected into another 1.5-ml centrifuge tube, dried under a gentle stream of nitrogen at 37°C, and then added with 50 µL of 80% methanol for resolution. The resolution samples were centrifuged at 4°C for 10 min (18000 rpm), and 5 µL supernatant was extracted and injected for analysis.
(§5) Twenty-four male Sprague–Dawley rats (weigh 200–220 g) were divided into four groups with six rats in each group randomly, including three capsule groups at three different doses and one injection group. In the instructions for cinobufacini capsule and injection, the clinical dosage for adults is 2 g per 70 kg orally and 20 ml per 70 kg intravenously, converting to rat doses of 180 mg/kg and 1.8 ml/kg, respectively.
(§6) In the pre-experiments, we compared cinobufacini capsule of 180 mg/kg (one-time clinical dose) and 900 mg/kg (five times of clinical dose) and Cinobufacini injection of 1.8 ml/kg, but concentrations of some compounds in plasma were too low and difficult to be quantified. […] The experimental rats were led to fast the night and were free to get access to water for 12 h before the pharmacokinetic study. After administration, blood samples (approximately 150 μL) of rats were collected via retro-orbital sinus into heparinized centrifuge tubes at 0.05, 0.083, 0.25, 0.5, 0.75, 1, 2, 4, 6, 8, and 10 h. After centrifugation at 5,000 rpm for 10 min, the plasma was transferred to 1.5-ml polypropylene tubes and stored at −80°C until UPLC-MS/MS analysis.
(§7) GraphPad Prism software (version 8.0.2) was used to draw the mean plasma concentration–time curves of all analytes. The pharmacokinetic parameters were calculated by DAS 3.2.8 software. Meanwhile, the pharmacokinetic data on rats were presented as mean ± standard deviation (SD). Differences of pharmacokinetic parameters between groups were analyzed by the t-test using SPSS software (version 26.0). Differences were considered significant statistically when the p-values were <0.05 and very significant statistically when the p-values were <0.01.

A short description of data set [3]: Pharmacokinetic study in rats after oral administration of cinobufacini capsule (UPLC-MS/MS of plasma). The format is in vivo, rat. Conditions: for detection in rat plasma: cinobufacini capsule groups. The procedure: as §1, §2, §3, §4, §5, §6, §7
Details of data set [4]: method as in Huang et al., 2015. To be noted: after administration of Shexiang Baoxin pill; ref Huang et al., 2015; cited from earlier work.
On the set-up of data set [5]: method as in Wang et al., 2014. To be noted: administration dose 1.11 mg/kg; ref Wang et al., 2014; cited from earlier work.
[6] abbreviates: high QC level (249.58–250.28 ng/ml).
The mark [7] stands for this setting: medium QC level (49.92–50.06 ng/ml).

What is called Cmax is the highest concentration seen after dosing.

With `CC(=O)O[C@H]1C[C@]2(O)[C@@H]3CC[C@@H]4C[C@@H](O)CC[C@]4(C)[C@H]3CC[C@]2(C)[C@H]1c1ccc(=O)oc1` [BL, bufotalin], the “Stability during 24 h at 4°C, RE” value in data set [1] (setting [6]) turned out to be 5.7%; in data set [1] (low QC level (4.99–5.00 ng/ml)), 11.4%; in data set [1] (setting [7]), 5.0%. Further, the entries for the “−80°C for 30 days, RE” value in data set [1] (setting [6]), in data set [1] (low QC level (4.99–5.00 ng/ml)) and in data set [1] (setting [7]) were 6.0%, 2.3% and 2.1%, respectively. Moreover, the “Three freeze–thaw cycles, RE” value in data set [1] (setting [6]) came to 7.1%; in data set [1] (low QC level (4.99–5.00 ng/ml)), 3.4%; in data set [1] (setting [7]), 3.1%. Besides, the “detection in rat plasma” value in data set [2] and in data set [3] was “could not be detected” in each case. In addition, the concentration in plasma result in data set [3] (present study) is recorded as “too low to calculate the pharmacokinetics parameters accurately”; in data set [4], “lower than 4.4 ng/ml”.

Take `CC(=O)O[C@H]1[C@H]2O[C@]23[C@@H]2CC[C@@H]4C[C@@H](O)CC[C@]4(C)[C@H]2CC[C@]3(C)[C@H]1c1ccc(=O)oc1` [CBG, cinobufagin]: the “Stability during 24 h at 4°C, RE” value in data set [1] (setting [6]) is 0.6%; in data set [1] (low QC level (4.99–5.00 ng/ml)), 4.8%; in data set [1] (setting [7]), −3.2%. For the same molecule, the “−80°C for 30 days, RE” value is 2.3% in data set [1] (setting [6]), 3.7% in data set [1] (low QC level (4.99–5.00 ng/ml)) and −1.0% in data set [1] (setting [7]). In addition, the “Three freeze–thaw cycles, RE” value worked out at 3.4% in data set [1] (setting [6]), 4.8% in data set [1] (low QC level (4.99–5.00 ng/ml)) and 0.0% in data set [1] (setting [7]). Also, the “detection in rat plasma” value in data set [2] and in data set [3] was “could not be detected” throughout. In data set [4], the detection in plasma result was “not detected”. Besides, the Cmax in data set [5] was 4.49 ng/mL.

On to `CC(=O)O[C@H]1[C@H]2O[C@]23[C@@H]2CC[C@]4(O)C[C@@H](O)CC[C@]4(C)[C@H]2CC[C@]3(C)[C@H]1c1ccc(=O)oc1` [CBT, cinobufotalin], for which the “Stability during 24 h at 4°C, RE” value in data set [1] (setting [6]) worked out at 4.8%; in data set [1] (low QC level (4.99–5.00 ng/ml)) it was 9.8%; in data set [1] (setting [7]) it was 7.7%. Also, the “−80°C for 30 days, RE” value in data set [1] (setting [6]) is listed as −8.7%; in data set [1] (low QC level (4.99–5.00 ng/ml)), −0.3%; in data set [1] (setting [7]), 4.1%. Besides, the “Three freeze–thaw cycles, RE” value in data set [1] (setting [6]) amounted to 12.0%; in data set [1] (low QC level (4.99–5.00 ng/ml)), 4.3%; in data set [1] (setting [7]), 13.2%. The “detection in rat plasma” value in data set [2] and in data set [3] was “could not be detected” throughout.

As to `C[C@]12CC[C@H](O)C[C@H]1CC[C@@H]1[C@@H]2CC[C@]2(C)[C@@H](c3ccc(=O)oc3)C[C@H]3O[C@]132` [RBG, resibufogenin], the “Stability during 24 h at 4°C, RE” value in data set [1] (setting [6]) is −3.3%; in data set [1] (low QC level (4.99–5.00 ng/ml)), −6.4%; in data set [1] (setting [7]), 3.5%. Moreover, the “−80°C for 30 days, RE” value in data set [1] (setting [6]) is −2.8%; in data set [1] (low QC level (4.99–5.00 ng/ml)), −1.3%; in data set [1] (setting [7]) it was 2.3%. Moreover, the “Three freeze–thaw cycles, RE” value in data set [1] (setting [6]) is listed as −1.9%; in data set [1] (low QC level (4.99–5.00 ng/ml)), −0.3%; in data set [1] (setting [7]), 3.3%. Further, the “detection in rat plasma” value in data set [2] and in data set [3] was “could not be detected” each time.
